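Dose response: 5 concentrations. Exposure: 48 h. Format: 96-well plates. Endpoint: linear interpolation; highest concentration if not reached. Abbreviation: GI50, concentration required for 50% inhibition of growth. TGI marks complete inhibition of growth.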
Columns and labels:
Test in all cases: NCI anticancer screen, dose series, 48 h
[1] = tested on: OVCAR-5 ovarian
[2] = tested on: PC-3 prostate
[3] = tested on: OVCAR-3 ovarian
[4] = tested on: HCT-15 colon
[5] = tested on: NCI/ADR-RES ovarian
[6] = tested on: NCI-H226 lung
[7] = tested on: SNB-19 CNS
[8] = tested on: HCT-116 colon
[9] = tested on: MDA-MB-231 breast
[10] = tested on: HOP-62 NSCLC
[11] = tested on: COLO 205 colon
[12] = tested on: T-47D breast
[13] = tested on: K-562 leukemia
[14] = tested on: CAKI-1 renal
[15] = tested on: SF-295 CNS
[16] = tested on: SNB-75 CNS
[17] = tested on: SF-268 CNS
[18] = tested on: SW-620 colon
[19] = tested on: UACC-257 melanoma
[20] = tested on: RXF 393 renal
[21] = tested on: OVCAR-8 ovarian
[22] = tested on: MDA-MB-435
[23] = tested on: BT-549 breast
[24] = tested on: UACC-62 melanoma
[25] = tested on: DU-145 prostate
[26] = tested on: SK-MEL-28 melanoma
[27] = tested on: SK-MEL-2 melanoma
[28] = tested on: NCI-H522 lung
[29] = tested on: NCI-H460 lung
[30] = tested on: IGROV1 ovarian
[31] = tested on: SN12C renal
[32] = tested on: LOX IMVI melanoma
[33] = tested on: EKVX NSCLC
[34] = tested on: M14 melanoma
[35] = tested on: TK-10 renal
[36] = tested on: A549 NSCLC
[37] = tested on: 786-0 renal
[38] = tested on: SK-OV-3 ovarian
[39] = tested on: KM12 colon
[40] = tested on: UO-31 renal
[41] = tested on: RPMI-8226 leukemia
[42] = tested on: U251 CNS
[43] = tested on: SR leukemia
[44] = tested on: HL-60(TB) leukemia
[45] = tested on: SF-539 CNS
[46] = tested on: HS 578T breast
[47] = tested on: OVCAR-4 ovarian
[48] = tested on: MOLT-4 leukemia
[49] = tested on: SK-MEL-5 melanoma
[50] = tested on: MCF7 breast
[51] = tested on: MALME-3M melanoma
[52] = tested on: NCI-H23 lung
[53] = tested on: HCC-2998 colon
[54] = tested on: CCRF-CEM leukemia
[55] = tested on: ACHN renal
[56] = tested on: A498 renal
[57] = tested on: HT29 colon

Compound: CC1OC(OC2C(O)C(OCCc3ccc(O)c(O)c3)OC(CO)C2OC(=O)/C=C/c2ccc(O)c(O)c2)C(O)C(O)C1OC1OCC(O)(CO)C1O (stereo unspecified)
- GI50 [1]: > 100 µM
- TGI [1]: > 100 µM
- GI50 [2]: 0.85 µM
- TGI [2]: > 100 µM
- GI50 [3]: 27.4 µM
- TGI [3]: > 100 µM
- GI50 [4]: > 100 µM
- TGI [4]: > 100 µM
- GI50 [5]: 89 µM
- TGI [5]: > 100 µM
- GI50 [6]: > 100 µM
- TGI [6]: > 100 µM
- GI50 [7]: > 100 µM
- TGI [7]: > 100 µM
- GI50 [8]: 20.3 µM
- TGI [8]: 47.7 µM
- GI50 [9]: > 100 µM
- TGI [9]: > 100 µM
- GI50 [10]: > 100 µM
- TGI [10]: > 100 µM
- GI50 [11]: > 100 µM
- TGI [11]: > 100 µM
- GI50 [12]: > 100 µM
- TGI [12]: > 100 µM
- GI50 [13]: 39.3 µM
- TGI [13]: > 100 µM
- GI50 [14]: 7.71 µM
- TGI [14]: > 100 µM
- GI50 [15]: > 100 µM
- TGI [15]: > 100 µM
- GI50 [16]: > 100 µM
- TGI [16]: > 100 µM
- GI50 [17]: 0.0141 µM
- TGI [17]: 23.7 µM
- GI50 [18]: 25 µM
- TGI [18]: 57.9 µM
- GI50 [19]: > 100 µM
- TGI [19]: > 100 µM
- GI50 [20]: > 100 µM
- TGI [20]: > 100 µM
- GI50 [21]: > 100 µM
- TGI [21]: > 100 µM
- GI50 [22]: 16.1 µM
- TGI [22]: 35.3 µM
- GI50 [23]: 19.8 µM
- TGI [23]: 42.2 µM
- GI50 [24]: > 100 µM
- TGI [24]: > 100 µM
- GI50 [25]: 30.1 µM
- TGI [25]: > 100 µM
- GI50 [26]: > 100 µM
- TGI [26]: > 100 µM
- GI50 [27]: > 100 µM
- TGI [27]: > 100 µM
- GI50 [28]: > 100 µM
- TGI [28]: > 100 µM
- GI50 [29]: 96.9 µM
- TGI [29]: > 100 µM
- GI50 [30]: > 100 µM
- TGI [30]: > 100 µM
- GI50 [31]: > 100 µM
- TGI [31]: > 100 µM
- GI50 [32]: 17.2 µM
- TGI [32]: 35.3 µM
- GI50 [33]: > 100 µM
- TGI [33]: > 100 µM
- GI50 [34]: > 100 µM
- TGI [34]: > 100 µM
- GI50 [35]: > 100 µM
- TGI [35]: > 100 µM
- GI50 [36]: > 100 µM
- TGI [36]: > 100 µM
- GI50 [37]: 44.6 µM
- TGI [37]: > 100 µM
- GI50 [38]: > 100 µM
- TGI [38]: > 100 µM
- GI50 [39]: > 100 µM
- TGI [39]: > 100 µM
- GI50 [40]: > 100 µM
- TGI [40]: > 100 µM
- GI50 [41]: 38.5 µM
- TGI [41]: > 100 µM
- GI50 [42]: > 100 µM
- TGI [42]: > 100 µM
- GI50 [43]: 52.1 µM
- TGI [43]: > 100 µM
- GI50 [44]: 69.8 µM
- TGI [44]: > 100 µM
- GI50 [45]: 24.6 µM
- TGI [45]: 79 µM
- GI50 [46]: > 100 µM
- TGI [46]: > 100 µM
- GI50 [47]: > 100 µM
- TGI [47]: > 100 µM
- GI50 [48]: 55.6 µM
- TGI [48]: > 100 µM
- GI50 [49]: > 100 µM
- TGI [49]: > 100 µM

Compound: N#Cc1c(-c2ccc([N+](=O)[O-])cc2)cc(-c2ccc(Nc3ccnc4cc(C(F)(F)F)ccc34)cc2)[nH]c1=O
- TGI [1]: 40.1 µM
- TGI [2]: > 100 µM
- TGI [4]: > 100 µM
- TGI [50]: > 100 µM
- TGI [51]: > 100 µM
- TGI [5]: > 100 µM
- TGI [6]: > 100 µM
- TGI [52]: > 100 µM
- TGI [7]: 82.7 µM
- TGI [8]: 66.1 µM
- TGI [9]: 44.7 µM
- TGI [10]: > 100 µM
- TGI [11]: 29.1 µM
- TGI [12]: > 100 µM
- TGI [13]: > 100 µM
- TGI [14]: > 100 µM
- TGI [15]: > 100 µM
- TGI [16]: > 100 µM
- TGI [17]: > 100 µM
- TGI [18]: > 100 µM
- TGI [19]: > 100 µM
- TGI [20]: > 100 µM
- TGI [21]: > 100 µM
- TGI [22]: > 100 µM
- TGI [23]: > 100 µM
- TGI [24]: > 100 µM
- TGI [53]: > 100 µM
- TGI [25]: > 100 µM
- TGI [26]: > 100 µM
- TGI [27]: > 100 µM
- TGI [54]: > 100 µM
- TGI [28]: > 100 µM
- TGI [55]: > 100 µM
- TGI [29]: > 100 µM
- TGI [30]: > 100 µM
- TGI [31]: > 100 µM
- TGI [32]: > 100 µM
- TGI [33]: > 100 µM
- TGI [34]: > 100 µM
- TGI [56]: > 100 µM
- TGI [35]: > 100 µM
- TGI [36]: > 100 µM
- TGI [37]: > 100 µM
- TGI [38]: > 100 µM
- TGI [40]: > 100 µM
- TGI [41]: > 100 µM
- TGI [42]: 21.9 µM
- TGI [43]: > 100 µM
- TGI [45]: > 100 µM
- TGI [57]: > 100 µM
- TGI [47]: > 100 µM
- TGI [48]: > 100 µM
- TGI [49]: > 100 µM

— PubChem BioAssay (NCI)
